What was measured:
HCT116 MCS [1] = experiment: Pimonidazole staining of sectioned spheroids (indirect measure of respiration/hypoxia); format: cell-based
Description: (§1) HCT116 colon carcinoma cells were maintained in McCoy's 5A modified medium/10% fetal calf serum at 37° C. in 5% CO2. […] A cell suspension containing 10,000 cells (200 μl) was added to each well of poly-HEMA coated 96 well plates. The wells were then overfilled by adding an additional 170 μl media to acquire a convex surface curvature. Plasticine spacers (3 mm) were placed in the corners of each plate to prevent the lids from touching the media. The plates were then inverted in order to allow the cells to sediment to the liquid/air interface and incubated in gentle shaking. After 24 hrs incubation the plates were returned to normal. First excess media was removed by aspiration and then plasticine spacers. The plates were incubated for 4 days prior to drug treatment.
MCS produced by the hanging drop method in 96 well plates were fixed in paraformaldehyde, dehydrated, embedded in paraffin and sectioned. Each sample contained 32 MCS (MCS from each 96 well plate were pooled into 3 groups). The sections were deparaffinized with xylene, rehydrated and microwaved, and then incubated overnight with the monoclonal primary antibodies diluted in 1% (weight/volume) bovine serum albumin and visualized by standard avidin-biotin-peroxidase complex technique (Vector Laboratories, Burlingame, Calif., USA). Counterstaining was performed with Mayer's haematoxylin. […]

LC3-I and LC3-II = experiment: LC3-I / LC3-II induction in HCT116 (western blot, LC3 staining); format: cell-based; conditions: for Induction of LC3-I and LC3-II: HCT116 cells
Description: FIG. 4B: Staining of CB21-treated cells with an antibody to LC3. […] Cells were treated for 6 hours (6 μM), and then incubated further. Protein were extracted and subjected to western blot analysis. […] FIGS. 4F-4H: Morphology of peripheral and core cells visualized by electron microscopy. MCS were treated for 6 hours with 6 μM C21 and incubated further in drug-free medium for the times indicated and sectioned.
MCSs contain mostly non-proliferating cells. […] The mechanism(s) of action was studied in more detail. […] LC3-II (the PE-conjugated form of LC3) is a protein marker regarded to be most reliably associated with autophagosomes (19).

monolayer HCT116 cells = experiment: Proliferation / viability of monolayer HCT116 cells
Description: HCT116 MCS were treated for 6 hours with 6 μM CB21, followed by changing to drug-free medium and further incubation. MCS were sectioned and stained for active caspase-3. […] Cells were incubated for 30 minutes with EdU, fixed and analyzed by ArrayScan. […] Cells were seeded at 7,000 or 70,000 per well in 96 well plates in the presence or absence of CB21.
Cells were fixed and stained for LC3 after drug treatment at the times indicated. […] Cells were treated with 6 μM CB21 and/or 10 μM bafilomycin A and cells were photographed at the times Indicated. […] HCT116 cells were treated with 6 μM CB21 and/or 10 μM chloroquine. Cell proliferation was monitored by calculation of culture confluency.
HCT116 colon carcinoma cells were maintained in McCoy's 5A modified medium/10% fetal calf serum at 37° C. in 5% CO2. MCS were prepared using a modification of our previously described method (12). A cell suspension containing 10,000 cells (200 μl) was added to each well of poly-HEMA coated 96 well plates. The wells were then overfilled by adding an additional 170 μl media to acquire a convex surface curvature. […] Caspase cleaved keratin-18 (K18-Asp396) was determined using 25 mL medium/extract using the M30 CytoDeath ELISA assay (a variant of the M30-Apoptosense® ELISA (13) developed for in-vitro use (Peviva AB, Bromma, Sweden)). […]

mTOR substrate 4EBP1 = experiment: Phosphorylation of mTOR substrate 4EBP1 and of AKT (western blot); conditions: HCT116 cells
Description: Cell extract proteins were resolved by Tris-Acetate PAGE gels (Invitrogen, Carlsbad, Calif.) and transferred onto a polyvinylidene difluoride (PVDF) membrane. The membranes were incubated overnight with antibodies, washed and incubated with HRP-conjugated anti-rabbit Ig (Amersham Biosciences, Little Chalfont, UK) for 1 h. Peroxidase activity was developed by SuperSignal West Pico (Pierce Biotechnology, Rockford, Ill.) according to manufacturer's instructions.

HCT116 MCS [2] = format: cell-based
Description: Cell viability was determined using the acid phosphatase test.
as §1
Viability measurements were performed by the acid phosphatase (APH) method described by Friedrich et al. (14). Background activity was subtracted.

N#CC(C#N)=NNc1cccc(Cl)c1 [CCCP, carbonylcyanide-3-chlorophenylhydrazone]
Pimonidazole positive area (%) (HCT116 MCS [1]; 10 μM, 6 h): 79.9%

CO[C@H]1C[C@@H]2CC[C@@H](C)[C@@](O)(O2)C(=O)C(=O)N2CCCC[C@H]2C(=O)O[C@H]([C@H](C)C[C@@H]2CC[C@@H](O)[C@H](OC)C2)CC(=O)[C@H](C)/C=C(\C)[C@@H](O)[C@@H](OC)C(=O)[C@H](C)C[C@H](C)/C=C/C=C/C=C/1C [Rapamycin]
Pimonidazole positive area (%) (HCT116 MCS [1]; 10 nM, 5 h): 42.2%

CO/C1=C\C(C)=C\[C@@H](C)[C@@H](O)[C@@H](C)C/C(C)=C/C=C/[C@H](OC)[C@@H]([C@@H](C)[C@@H](O)[C@H](C)[C@@]2(O)C[C@@H](O)[C@H](C)[C@@H](C(C)C)O2)OC1=O [bafilomycin A]
appearance of large cytoplasmic LC3-II positive vesicles (LC3-I and LC3-II; HCT116 cells treated with CB21, 10 μM Bafilomycin A): suppresses the appearance of large cytoplasmic LC3-II positive vesicles
time at which cytotoxicity was observed (monolayer HCT116 cells; HCT116, 10 μM bafilomycin A, 6 μM CB21): ~72 h

Cn1c(=O)n(-c2ccc(C(C)(C)C#N)cc2)c2c3cc(-c4cnc5ccccc5c4)ccc3ncc21 [NVP-BEZ235]
4EBP1 phosphorylation (mTOR substrate 4EBP1): decrease
Induction of LC3-I and LC3-II (LC3-I and LC3-II; 6 h): weak induction
Induction of LC3-I and LC3-II (LC3-I and LC3-II; 24 h): no induction observed
viability of the cells in the core of the MCS (HCT116 MCS [2]): did not affect the viability

CCN(CC)CCCC(C)Nc1ccnc2cc(Cl)ccc12 (stereo not drawn) [CQ, Chloroquine]
proliferation / cell death of monolayer HCT116 cells (monolayer HCT116 cells; 10 μM chloroquine, 6 μM CB21, culture confluency): no effect

Reference: patent publication US10022380B2, “Treatment of solid tumours” (Vivolux AB, priority 2012, dated 2018)
